pIC50: −log10 of the molar value. Read-outs that look alike come from different tables or passages of the source.
Biological target: SMYD2 (Homo sapiens (Human), UniProt Q9NRG4)
Test: SMYD2 biochemical assay (SMYD2 enzyme assay on peptide substrate, 3H-SAM Flashplate)
[1] = read-out: SMYD2 Biochem IC50, IC50 values are an average of n = 1 to n = 50

Sequence of SMYD2 (Q9NRG4 whole entry): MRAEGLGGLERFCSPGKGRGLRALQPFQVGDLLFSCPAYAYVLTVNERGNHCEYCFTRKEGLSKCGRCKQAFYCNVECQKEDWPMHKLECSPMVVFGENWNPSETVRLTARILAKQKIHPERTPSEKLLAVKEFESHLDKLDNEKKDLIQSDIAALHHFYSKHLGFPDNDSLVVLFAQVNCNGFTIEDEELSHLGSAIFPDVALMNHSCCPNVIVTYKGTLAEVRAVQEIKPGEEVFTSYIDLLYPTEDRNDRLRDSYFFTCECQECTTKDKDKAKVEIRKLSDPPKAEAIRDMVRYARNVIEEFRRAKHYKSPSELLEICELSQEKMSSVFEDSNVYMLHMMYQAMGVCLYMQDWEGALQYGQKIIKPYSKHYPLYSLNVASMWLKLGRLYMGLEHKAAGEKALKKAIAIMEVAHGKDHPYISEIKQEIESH
Description: S-adenosylmethionine (SAM), S-adenosylhomocysteine (SAH), bicine, Tween20, dimethylsulfoxide (DMSO), bovine skin gelatin (BSG), and Tris(2-carboxyethyl)phosphine hydrochloride (TCEP) were purchased from Sigma-Aldrich at the highest level of purity possible. ^3H-SAM was purchase from American Radiolabeled Chemicals with a specific activity of 80 Ci/mmol. 384-well streptavidin Flashplates were purchased from PerkinElmer.
The sequence was [sequence](K-Biot)-amide.
Production of Recombinant SMYD2 Enzymes for Biochemical Enzyme Activity Assays
Full length SMYD2 (NP_064582.2) was cloned into a pFastbac-Htb-lic vector with an N-terminal His6 tag and FLAG tag, preceded by a TEV protease cleavage site. The protein was expressed in Sf9 insect cells. Cells were resuspended in lysis buffer (25 mM HEPES-NaOH, pH 7.5, 200 mM NaCl, 5% glycerol, and 5 mM (3-ME) and lysed by sonication. The protein was purified by Ni-NTA (Qiagen), followed by TEV cleavage to remove the His6 tag, subtractive Ni-NTA (Qiagen), and gel filtration chromatography using an S200 column (GE Healthcare). Purified protein was stored in 20 mM Tris-HCl, pH 8.0, 100 mM NaCl, and 1 mM TCEP.
General Procedure for SMYD2 Enzyme Assays on Peptide Substrates
The assays were all performed in a buffer consisting of 20 mM Bicine (pH=7.6), 1 mM TCEP, 0.005% Bovine Skin Gelatin, and 0.002% Tween20, prepared on the day of use. […] DMSO (1 ul) was added to Columns 11, 12, 23, 24, rows A-H for the maximum signal control and 1 ul of SAH, a known product and inhibitor of SMYD2, was added to columns 11, 12, 23, 24, rows I-P for the minimum signal control. A cocktail (40 ul) containing the SMYD2 enzyme was added by Multidrop Combi (Thermo-Fisher). The compounds were allowed to incubate with SMYD2 for 30 min at room temperature, then a cocktail (10 ul) containing ^3H-SAM and peptide was added to initiate the reaction (final volume=51 ul). […] The assays were stopped by the addition of non-radioactive SAM (10 ul) to a final concentration of 600 uM, which dilutes the ^3H-SAM to a level where its incorporation into the peptide substrate is no longer detectable. 50 ul of the reaction in the 384-well polypropylene plate was then transferred to a 384-well Flashplate and the biotinylated peptides were allowed to bind to the streptavidin surface for at least 1 hour before being washed three times with 0.1% Tween20 in a Biotek ELx405 plate washer. The plates were then read in a PerkinElmer TopCount plate reader to measure the quantity of ^3H-labeled peptide bound to the Flashplate surface, measured as disintegrations per minute (dpm) or alternatively, referred to as counts per minute (cpm).
Where dpm=disintegrations per minute, cmpd=signal in assay well, and min and max are the respective minimum and maximum signal controls.
Where top and bottom are the normally allowed to float, but may be fixed at 100 or 0 respectively in a 3-parameter fit. The Hill Coefficient normally allowed to float but may also be fixed at 1 in a 3-parameter fit. I is the compound concentration.

pIC50 [1]	pIC50 (SMYD2 Biochem IC50, IC50 values are an average of n = 1 to n = 50)	SMILES
5.77	–	O=C(NC1CN(Cc2cnn(CC3CC3)c2)C1)c1cn(C2CC2)nn1 [compound 1006, 1-cyclopropyl-N-(1-((1-(cyclopropylmethyl)-1H-pyrazol-4-yl)methyl)azetidin-3-yl)-1H-1,2,3-triazole-4-carboxamide]
5.72	–	COc1cc(F)ccc1C(C)N1CC(NC(=O)c2cn(C3CC3)nn2)C1 (stereo not drawn) [compound 689, 1-cyclopropyl-N-{1-[1-(4-fluoro-2-methoxyphenyl)ethyl]azetidin-3-yl}-1H-1,2,3-triazole-4-carboxamide]
6.80	–	COc1ccc(COc2ccc(C(C)N3CC(NC(=O)c4cn(C5CC5)nn4)C3)cc2)cc1 (stereo not drawn) [compound 957, 1-cyclopropyl-N-(1-(1-(4-((4-methoxybenzyl)oxy)phenyl)ethyl)azetidin-3-yl)-1H-1,2,3-triazole-4-carboxamide]
5.11	–	O=C(NC1CN(Cc2cn[nH]c2)C1)c1cn(C2CC2)nn1 [compound 940, N-(1-((1H-pyrazol-4-yl)methyl)azetidin-3-yl)-1-cyclopropyl-1H-1,2,3-triazole-4-carboxamide]
6.01	–	O=C(NC1CN(Cc2cnn(CCc3ccccc3)c2)C1)c1cn(C2CC2)nn1 [compound 806, 1-cyclopropyl-N-(1-{[1-(2-phenylethyl)-1H-pyrazol-4-yl]methyl}azetidin-3-yl)-1H-1,2,3-triazole-4-carboxamide]
5.61	–	COCCN1CC(NC(=O)c2cn(C3CC3)nn2)C1 [compound 667, 1-cyclopropyl-N-[1-(2-methoxyethyl)azetidin-3-yl]-1H-1,2,3-triazole-4-carboxamide]
5.90	–	COc1ccnc(C(C)N2CC(NC(=O)c3cn(C4CC4)nn3)C2)c1 (stereo not drawn) [compound 724, 1-cyclopropyl-N-{1-[1-(4-methoxypyridin-2-yl)ethyl]azetidin-3-yl}-1H-1,2,3-triazole-4-carboxamide]
6.14	–	C[C@@H](c1ccccc1)N1CC(NC(=O)c2ncc(C3CC3)[nH]2)C1 [compound 914, 5-cyclopropyl-N-{1-[(1S)-1-phenylethyl]azetidin-3-yl}-1H-imidazole-2-carboxamide]
5.59	–	CC(c1c[nH]cn1)N1CC(NC(=O)c2cn(C3CC3)nn2)C1 (stereo not drawn) [compound 785, 1-cyclopropyl-N-{1-[1-(1H-imidazol-4-yl)ethyl]azetidin-3-yl}-1H-1,2,3-triazole-4-carboxamide]
5.71	–	CC(c1ncccn1)N1CC(NC(=O)c2cn(C3CC3)nn2)C1 (stereo not drawn) [compound 715, 1-cyclopropyl-N-{1-[1-(pyrimidin-2-yl)ethyl]azetidin-3-yl}-1H-1,2,3-triazole-4-carboxamide]
5.99	–	COc1cccnc1C(C)N1CC(NC(=O)c2cn(C3CC3)nn2)C1 (stereo not drawn) [compound 725, 1-cyclopropyl-N-{1-[1-(3-methoxypyridin-2-yl)ethyl]azetidin-3-yl}-1H-1,2,3-triazole-4-carboxamide]
6.76	–	CC(c1ccc(OCc2ccccc2)cc1)N1CC(NC(=O)c2cn(C3CC3)nn2)C1 (stereo not drawn) [compound 692, N-(1-{1-[4-(benzyloxy)phenyl]ethyl}azetidin-3-yl)-1-cyclopropyl-1H-1,2,3-triazole-4-carboxamide]
5.29	–	COc1ccc(CC(C)N2CC(NC(=O)c3cn(C4CC4)nn3)C2)cc1OC (stereo not drawn) [compound 688, 1-cyclopropyl-N-{1-[1-(3,4-dimethoxyphenyl)propan-2-yl]azetidin-3-yl}-1H-1,2,3-triazole-4-carboxamide]
5.63	–	CNCCOc1cccc(CN2CC(NC(=O)c3cn(C4CC4)nn3)C2)c1 [compound 735, 1-cyclopropyl-N-[1-({3-[2-(methylamino)ethoxy]phenyl}methyl)azetidin-3-yl]-1H-1,2,3-triazole-4-carboxamide]
6.37	–	CCC(c1ccccc1F)N1CC(NC(=O)c2cn(C3CC3)nn2)C1 (stereo not drawn) [compound 798, 1-cyclopropyl-N-{1-[1-(2-fluorophenyl)propyl]azetidin-3-yl}-1H-1,2,3-triazole-4-carboxamide]
6.32	–	CC(c1cc(Cl)ccc1Cl)N1CC(NC(=O)c2cc(C3CC3)ccn2)C1 (stereo not drawn) [compound 962, 4-cyclopropyl-N-(1-(1-(2,5-dichlorophenyl)ethyl)azetidin-3-yl)picolinamide]
5.00	–	COc1ccc2c(c1)CCCC2N1CC(NC(=O)c2cn(C3CC3)nn2)C1 (stereo not drawn) [compound 793, 1-cyclopropyl-N-[1-(6-methoxy-1,2,3,4-tetrahydronaphthalen-1-yl)azetidin-3-yl]-1H-1,2,3-triazole-4-carboxamide]
4.68	–	Cn1cnc(CN2CC(NC(=O)c3cn(C4CC4)nn3)C2)c1Cl [compound 784, N-{1-[(5-chloro-1-methyl-1H-imidazol-4-yl)methyl]azetidin-3-yl}-1-cyclopropyl-1H-1,2,3-triazole-4-carboxamide]
6.28	–	O=C(NC1CN(Cc2cnn(CCc3ccccc3)c2)C1)c1cc(C2CC2)cnn1 [compound 807, 5-cyclopropyl-N-(1-{[1-(2-phenylethyl)-1H-pyrazol-4-yl]methyl}azetidin-3-yl)pyridazine-3-carboxamide]

pIC50 [1]	pIC50 (SMYD2 Biochem IC50, IC50 values are an average of n = 1 to n = 50)	SMILES
< 4.30	–	CN(C)CCNC(=O)c1cn(C2CC2)nn1 [compound 834, 1-cyclopropyl-N-[2-(dimethylamino)ethyl]-1H-1,2,3-triazole-4-carboxamide]
–	7.07	C[C@@H](c1ccc(OCc2ccccc2)cc1)N1CC(NC(=O)c2cn(C3CC3)nn2)C1 (single isomer, unassigned) [compound 778]
4.49	–	COc1c(CN)cccc1CN1CC(NC(=O)c2cn(C3CC3)nn2)C1 [compound 794, N-(1-{[3-(aminomethyl)-2-methoxyphenyl]methyl}azetidin-3-yl)-1-cyclopropyl-1H-1,2,3-triazole-4-carboxamide]
5.79	–	O=C(NC1CN(CC2CCC2)C1)c1cn(C2CC2)nn1 [compound 669, N-[1-(cyclobutylmethyl)azetidin-3-yl]-1-cyclopropyl-1H-1,2,3-triazole-4-carboxamide]
4.97	–	COc1c(CO)cccc1CN1CC(NC(=O)c2cn(C3CC3)nn2)C1 [compound 772, 1-cyclopropyl-N-(1-{[3-(hydroxymethyl)-2-methoxyphenyl]methyl}azetidin-3-yl)-1H-1,2,3-triazole-4-carboxamide]
7.16	–	COc1cccc(C(C)N2CC(NC(=O)c3cn(C4CC4)nn3)C2)c1Cl (stereo not drawn) [compound 803, N-{1-[1-(2-chloro-3-methoxyphenyl)ethyl]azetidin-3-yl}-1-cyclopropyl-1H-1,2,3-triazole-4-carboxamide]
4.98	–	O=C(NC1CNC1)c1cn(C2CC2)nn1 [compound 657, N-(azetidin-3-yl)-1-cyclopropyl-1H-1,2,3-triazole-4-carboxamide]
5.77	–	CC(c1ccc(OCC(F)(F)F)cc1)N1CC(NC(=O)c2cn(C3CC3)nn2)C1 (stereo not drawn) [compound 968, 1-cyclopropyl-N-(1-(1-(4-(2,2,2-trifluoroethoxy)phenyl)ethyl)azetidin-3-yl)-1H-1,2,3-triazole-4-carboxamide]
5.80	–	CC(c1ccc(-n2ccnc2)cc1)N1CC(NC(=O)c2cn(C3CC3)nn2)C1 (stereo not drawn) [compound 797, 1-cyclopropyl-N-(1-{1-[4-(1H-imidazol-1-yl)phenyl]ethyl}azetidin-3-yl)-1H-1,2,3-triazole-4-carboxamide]
4.97	–	CNC(=O)c1cccc(CN2CC(NC(=O)c3cn(C4CC4)nn3)C2)c1 [compound 726, 1-cyclopropyl-N-(1-{[3-(methylcarbamoyl)phenyl]methyl}azetidin-3-yl)-1H-1,2,3-triazole-4-carboxamide]
5.10	–	COc1ccc(C(F)(F)F)cc1C(C)N1CC(NC(=O)c2cn(C3CC3)nn2)C1 (stereo not drawn) [compound 690, 1-cyclopropyl-N-(1-{1-[2-methoxy-5-(trifluoromethyl)phenyl]ethyl}azetidin-3-yl)-1H-1,2,3-triazole-4-carboxamide]
6.47	–	CC[C@@H](c1cccc(Cl)c1)N1CC(NC(=O)c2cn(C3CC3)nn2)C1 [compound 837, N-{1-[(1S)-1-(3-chlorophenyl)propyl]azetidin-3-yl}-1-cyclopropyl-1H-1,2,3-triazole-4-carboxamide]
5.77	–	O=C(NC1CN(C(c2ccc(F)cc2)C2CC2)C1)c1cn(C2CC2)nn1 (stereo not drawn) [compound 786, 1-cyclopropyl-N-{1-[cyclopropyl(4-fluorophenyl)methyl]azetidin-3-yl}-1H-1,2,3-triazole-4-carboxamide]
7.14	–	O=C(NC1CN(Cc2cnn(Cc3ccccc3)c2)C1)c1cc(C2CC2)on1 [compound 955, N-(1-((1-benzyl-1H-pyrazol-4-yl)methyl)azetidin-3-yl)-5-cyclopropylisoxazole-3-carboxamide]
7.14	–	COc1cccc(C(C)N2CC(NC(=O)c3cc(C4CC4)cnn3)C2)c1Cl (stereo not drawn) [compound 851, N-{1-[1-(2-chloro-3-methoxyphenyl)ethyl]azetidin-3-yl}-5-cyclopropylpyridazine-3-carboxamide]
6.38	–	CC(c1ccccc1OCc1ccccc1)N1CC(NC(=O)c2cn(C3CC3)nn2)C1 (stereo not drawn) [compound 796, N-(1-{1-[2-(benzyloxy)phenyl]ethyl}azetidin-3-yl)-1-cyclopropyl-1H-1,2,3-triazole-4-carboxamide]
5.52	–	CC(c1cccc(Oc2ccccc2)c1)N1CC(NC(=O)c2cn(C3CC3)nn2)C1 (stereo not drawn) [compound 730, 1-cyclopropyl-N-{1-[1-(3-phenoxyphenyl)ethyl]azetidin-3-yl}-1H-1,2,3-triazole-4-carboxamide]
6.00	–	CC(c1ccccc1C(F)(F)F)N1CC(NC(=O)c2cn(C3CC3)nn2)C1 (stereo not drawn) [compound 741, 1-cyclopropyl-N-(1-{1-[2-(trifluoromethyl)phenyl]ethyl}azetidin-3-yl)-1H-1,2,3-triazole-4-carboxamide]
7.24	–	C[C@@H](c1cccc(OCCO)c1Cl)N1CC(NC(=O)c2cn(C3CC3)nn2)C1 (single isomer, unassigned) [compound 831]

SMILES	pIC50 [1]	pIC50 (SMYD2 Biochem IC50, IC50 values are an average of n = 1 to n = 50)
CCCCOc1ccc(C(C)N2CC(NC(=O)c3cn(C4CC4)nn3)C2)cc1 (stereo not drawn) [compound 681, N-{1-[1-(4-butoxyphenyl)ethyl]azetidin-3-yl}-1-cyclopropyl-1H-1,2,3-triazole-4-carboxamide]	5.89	–
